Measured values as given in publication PMC7996082, “The translocator protein ligands as mitochondrial functional modulators for the potential anti-Alzheimer agents” (Journal of Enzyme Inhibition and Medicinal Chemistry, 2021).

Legend:
[1] = Liver microsomal stability; assay type: in vitro ADME; details: human, liver microsomes, 1 µM compound, 0.5 mg/mL microsomes, 30 min, 37 °C; read-out: Human Liver Microsomal Stability (% remaining after 30 min)
Method: Liver microsomes (human, dog, rat, and mouse; 0.5 mg/mL) were incubated with 1 µM of each test compound in the presence of potassium phosphate buffer (PPB) for 5 min at 37 °C. A solution of the NADPH regeneration system (#44332000, Oriental Yeast Co., Japan) was added to begin metabolic reactions of liver microsomes. The resulting mixtures were incubated for 30 min at 37 °C, and the reaction was terminated by the addition of a cold MeCN solution containing an internal standard (chlorpropamide). The mixture was separated by centrifugation (14,000 rpm for 5 min at 4 °C), and the supernatant was analysed by LC-MS/MS (Shimadzu Nexera XR system and TSQ vantage; Thermo Scientific).

CYP3A4 = biological target: T1, CYP3A4 (Homo sapiens, UniProt P08684); assay: CYP inhibition assay (Vivid CYP450 screening kit); assay type: in vitro ADME; details: 10 μM compound
T1 construct: purchased Invitrogen, Madison, WI, USA
T1 sequence (P08684 2-503 limits assumed): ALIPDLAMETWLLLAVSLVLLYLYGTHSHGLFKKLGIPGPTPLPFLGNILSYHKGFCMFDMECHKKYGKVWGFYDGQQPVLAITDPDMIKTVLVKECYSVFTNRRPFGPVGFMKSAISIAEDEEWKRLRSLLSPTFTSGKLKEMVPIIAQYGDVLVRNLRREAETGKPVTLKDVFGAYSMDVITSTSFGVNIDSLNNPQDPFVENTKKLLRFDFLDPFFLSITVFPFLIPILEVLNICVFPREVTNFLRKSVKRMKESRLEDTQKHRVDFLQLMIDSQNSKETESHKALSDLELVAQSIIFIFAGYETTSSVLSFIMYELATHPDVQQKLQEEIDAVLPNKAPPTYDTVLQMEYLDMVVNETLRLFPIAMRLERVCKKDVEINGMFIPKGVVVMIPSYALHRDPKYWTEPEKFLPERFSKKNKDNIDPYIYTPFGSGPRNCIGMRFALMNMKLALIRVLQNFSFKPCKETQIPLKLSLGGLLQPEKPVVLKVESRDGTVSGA
Method: (§1) Human CYP450 (CYP1A2, 2D6, 2C9, 2C19, and 3A4) activities were determined by using the Vivid® CYP450 screening kit (Invitrogen, Madison, WI, USA) in a clear 96-well plate. Five positive controls were used as 10 mM solutions in MeCN for five different CYP450 enzymes: CYP1A2 (α-naphthoflavone), CYP2D6 (quinidine), CYP2C9 (sulfaphenazole), CYP2C19 (lansoprazole), and CYP3A4 (ketoconazole). Each sample (test compounds, positive inhibition controls, and solvent controls) was added into each well with the Master Pre-Mix [CYP450 BACULOSOMES® Reagent (recombinant human CYP450 isozyme and rabbit NADPHP450 reductase) and Regeneration System (3.3 mM glucose-6-phosphate and 0.3 U/ml glucose-6-phosphate dehydrogenase in 100 mM potassium phosphate, pH 8.0)]. The mixture was incubated for 5 min at 37 °C, and the Vivid® CYP substrates and 0.1 mM NADP^+ buffer were added to initiate the CYP450 enzyme reaction. The % remaining activities of CYP450 were measured after 20 min by using a fluorescent plate reader (Flexstation® 3, Molecular Devices, USA).

CYP2D6 = biological target: T2, CYP2D6 (Homo sapiens, UniProt P10635); assay: CYP inhibition assay (Vivid CYP450 screening kit); assay type: in vitro ADME; details: 10 μM compound
T2 construct: purchased Invitrogen, Madison, WI, USA
T2 sequence (P10635 whole entry): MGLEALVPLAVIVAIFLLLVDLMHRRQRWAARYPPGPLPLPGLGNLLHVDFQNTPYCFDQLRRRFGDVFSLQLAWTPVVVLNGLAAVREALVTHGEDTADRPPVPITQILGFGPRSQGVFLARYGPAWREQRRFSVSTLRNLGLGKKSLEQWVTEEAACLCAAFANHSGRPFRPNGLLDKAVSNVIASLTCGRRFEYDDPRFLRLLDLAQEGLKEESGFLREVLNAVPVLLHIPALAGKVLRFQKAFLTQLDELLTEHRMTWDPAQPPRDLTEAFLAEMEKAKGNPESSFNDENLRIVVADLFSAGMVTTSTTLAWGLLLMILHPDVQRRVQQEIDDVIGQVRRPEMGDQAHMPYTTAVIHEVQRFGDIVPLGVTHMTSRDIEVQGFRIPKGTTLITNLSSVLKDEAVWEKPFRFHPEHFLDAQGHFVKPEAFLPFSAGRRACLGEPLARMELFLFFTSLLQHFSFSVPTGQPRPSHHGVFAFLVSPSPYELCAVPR
Method: as §1

CYP1A2 = biological target: T3, CYP1A2 (Homo sapiens, UniProt P05177); assay: CYP inhibition assay (Vivid CYP450 screening kit); assay type: in vitro ADME; details: 10 μM compound
T3 construct: purchased Invitrogen, Madison, WI, USA
T3 sequence (P05177 2-516 limits assumed): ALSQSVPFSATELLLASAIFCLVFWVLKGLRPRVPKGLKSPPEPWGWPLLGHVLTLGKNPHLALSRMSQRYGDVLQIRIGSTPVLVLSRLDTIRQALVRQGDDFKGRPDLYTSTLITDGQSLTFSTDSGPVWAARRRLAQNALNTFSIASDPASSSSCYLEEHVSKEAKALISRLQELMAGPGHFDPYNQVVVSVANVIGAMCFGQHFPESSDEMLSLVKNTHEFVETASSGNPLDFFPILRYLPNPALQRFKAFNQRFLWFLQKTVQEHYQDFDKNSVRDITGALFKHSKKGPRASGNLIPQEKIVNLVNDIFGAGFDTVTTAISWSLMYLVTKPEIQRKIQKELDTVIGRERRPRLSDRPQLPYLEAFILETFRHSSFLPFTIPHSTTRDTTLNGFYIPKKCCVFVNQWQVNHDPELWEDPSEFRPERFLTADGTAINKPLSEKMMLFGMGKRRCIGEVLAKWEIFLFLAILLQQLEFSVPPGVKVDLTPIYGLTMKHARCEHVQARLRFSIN
Method: as §1

CYP2C9 = biological target: T4, CYP2C9 (Homo sapiens, UniProt P11712); assay: CYP inhibition assay (Vivid CYP450 screening kit); assay type: in vitro ADME; details: 10 μM compound
T4 construct: purchased Invitrogen, Madison, WI, USA
T4 sequence (P11712 whole entry): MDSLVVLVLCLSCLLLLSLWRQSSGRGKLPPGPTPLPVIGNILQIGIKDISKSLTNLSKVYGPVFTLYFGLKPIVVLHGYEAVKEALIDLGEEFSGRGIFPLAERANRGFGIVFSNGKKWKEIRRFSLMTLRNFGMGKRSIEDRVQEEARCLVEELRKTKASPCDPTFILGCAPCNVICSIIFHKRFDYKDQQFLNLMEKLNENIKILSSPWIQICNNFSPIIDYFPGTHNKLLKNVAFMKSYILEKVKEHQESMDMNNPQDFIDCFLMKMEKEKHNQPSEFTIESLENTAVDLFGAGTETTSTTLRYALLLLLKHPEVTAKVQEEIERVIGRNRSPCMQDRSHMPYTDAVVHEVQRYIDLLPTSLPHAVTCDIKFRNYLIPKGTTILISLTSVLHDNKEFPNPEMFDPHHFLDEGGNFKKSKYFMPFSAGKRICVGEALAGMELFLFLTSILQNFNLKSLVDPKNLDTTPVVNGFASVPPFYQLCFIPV
Method: as §1

hERG channel = biological target: T5, hERG channel (Homo sapiens, UniProt Q12809); assay: hERG inhibition assay (automated patch-clamp, CHO-K1 Tet-On hERG cells); assay type: cell-based; details: for hERG inhibition (in words): authors' grading of Table 6; for IC50: patch-clamp, ± SD
T5 construct: host or cells: CHO-K1 Tet-On hERG cells
T5 sequence (Q12809 whole entry): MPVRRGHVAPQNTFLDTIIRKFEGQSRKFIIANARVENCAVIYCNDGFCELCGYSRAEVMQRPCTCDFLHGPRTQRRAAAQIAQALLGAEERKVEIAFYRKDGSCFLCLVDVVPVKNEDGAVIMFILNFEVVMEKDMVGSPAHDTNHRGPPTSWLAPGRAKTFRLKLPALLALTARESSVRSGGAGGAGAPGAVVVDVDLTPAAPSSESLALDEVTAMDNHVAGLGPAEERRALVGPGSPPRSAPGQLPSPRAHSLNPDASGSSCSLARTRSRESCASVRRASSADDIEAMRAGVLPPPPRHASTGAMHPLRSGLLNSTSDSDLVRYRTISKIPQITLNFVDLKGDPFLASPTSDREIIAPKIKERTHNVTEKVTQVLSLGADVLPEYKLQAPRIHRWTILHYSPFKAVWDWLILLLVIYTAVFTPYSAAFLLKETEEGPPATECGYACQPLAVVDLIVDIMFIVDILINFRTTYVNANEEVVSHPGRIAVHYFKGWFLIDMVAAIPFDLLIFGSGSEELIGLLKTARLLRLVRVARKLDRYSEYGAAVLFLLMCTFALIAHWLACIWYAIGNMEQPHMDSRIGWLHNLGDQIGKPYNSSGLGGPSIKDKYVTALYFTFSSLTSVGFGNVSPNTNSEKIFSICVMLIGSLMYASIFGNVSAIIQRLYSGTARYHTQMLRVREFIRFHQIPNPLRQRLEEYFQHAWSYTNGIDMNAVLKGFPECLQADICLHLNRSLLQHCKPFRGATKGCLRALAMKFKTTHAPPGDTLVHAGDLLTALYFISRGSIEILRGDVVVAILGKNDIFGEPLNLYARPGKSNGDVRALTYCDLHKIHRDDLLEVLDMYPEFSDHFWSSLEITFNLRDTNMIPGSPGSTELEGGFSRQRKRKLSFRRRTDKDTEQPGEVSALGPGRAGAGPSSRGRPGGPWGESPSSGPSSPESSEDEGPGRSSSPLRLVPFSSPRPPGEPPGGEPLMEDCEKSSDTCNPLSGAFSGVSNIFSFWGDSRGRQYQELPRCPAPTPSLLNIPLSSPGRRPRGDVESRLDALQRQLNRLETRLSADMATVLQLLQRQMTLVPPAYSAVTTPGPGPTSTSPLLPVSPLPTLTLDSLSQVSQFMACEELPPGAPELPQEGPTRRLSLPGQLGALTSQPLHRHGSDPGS
Method: For automated patch-clamp NPC-16 Patchliner (Nanion Technologies, München, Germany) recordings, CHO-K1 Tet-On hERG cells (IonGate Biosciences GmbH, Frankfurt, Germany) were plated into 100-mm cell culture dishes. Whole-cell currents were recorded with the intracellular solution containing: 50 mM KCl, 60 mM KF, 10 mM NaCl, 2 mM MgCl2, 20 mM EGTA and 10 mM HEPES (pH 7.2), and with the extracellular solution containing: 140 mM NaCl, 4 mM KCl, 2 mM CaCl2, 1 mM MgCl2, 5 mM Glucose and 10 HEPES (pH 7.4). To assist stable seal formations, the seal enhancer containing: 80 mM NaCl, 3 mM KCl, 35 mM CaCl2, 10 mM MgCl2 and 10 mM HEPES (pH 7.4) was used only at the seal formation step. Prior to the whole-cell recordings, the external seal enhancing solution was exchanged to the extracellular solution described above. hERG channel currents were recorded using the parallel EPC-10 patch-clamp amplifiers (HEKA Elektronik, Lambrecht/Pfalz, Germany), and low-pass filtered (10 kHz) with a 4-pole Bessel filter. Cell suspension and patch solutions were automatically added onto the four recording wells in the microfabricated disposable chip (NPC-16 Chip, Nanion Technologies, München, Germany). To obtain the inhibitory constants, hERG tail currents were evoked by repolarizing steps to −50 mV for 500 ms preceded by a 500-ms depolarisation potential of +20 mV at a holding potential of −80 mV with a 20-s sweep interval. Whole-cell currents were acquired and digitised at 5 kHz using Patchmaster (HEKA Elektronik, Lambrecht/Pfalz, Germany). The extracellular solution was exchanged to the extracellular solution containing each blocker via four pipette tips of NPC-16 Patchliner using a 4-fold volume of solution (40 µL) with a speed of 4 µL/s, and the exchanged blocker solution was applied for 100–200 s to the patch-clamped cells until blocker binding had reached equilibrium by monitoring hERG tail currents. Whole-cell recordings were analysed using the Patchmaster/Fitmaster (HEKA Elektronik, Lambrecht/Pfalz, Germany), IGOR Pro (WaveMetrics Inc., Portland, OR, USA), and the GraphPad Prism 4.0 (GraphPad Software, Inc., La Jolla, CA, USA) software.

Row | SMILES | remaining at 0.5 h, 1 µM [1] [%] | CYP450 (% remaining Activity at 10 μM) CYP3A4 (CYP3A4) [%] | CYP450 (% remaining Activity at 10 μM) CYP2D6 (CYP2D6) [%] | CYP450 (% remaining Activity at 10 μM) CYP1A2 (CYP1A2) [%] | CYP450 (% remaining Activity at 10 μM) CYP2C9 (CYP2C9) [%] | hERG inhibition (in words) (hERG channel) | IC50 (hERG channel) [µM]
1 | CCOc1ccc(-n2c(SCC(=O)NCc3ccccc3)nc3sc4c(c3c2=O)CCN(C)C4)cc1 [Compound 49] | 87.9 | 28.1 | 43.1 | 95.3 | 99.6 | low hERG inhibition | 15 ± 4.24
2 | CCOc1ccc(-n2c(SCC(=O)N(C)Cc3ccccc3)nc3sc4c(c3c2=O)CCN(C)C4)cc1 [Compound 50] | 73.1 | 36.5 | 30.0 | 97.3 | 66.4 | low hERG inhibition | 10.6 ± 0.97
3 | CCOc1ccc(-n2c(SCC(=O)NCc3ccccc3)nc3sc4c(c3c2=O)CCN(C(C)=O)C4)cc1 [Compound 31] | 32.7 | 18.3 | 88.1 | 143.1 | 51.1 | low hERG inhibition | 8.8 ± 2.36
4 | CCOc1ccc(-n2c(SCC(=O)N3CCN(c4ccccc4)CC3)nc3sc4c(c3c2=O)CCN(C(C)=O)C4)cc1 [Compound 44] | 15.3 | 72.2 | 117.3 | 92.0 | 84.4 | low hERG inhibition | 8.9 ± 0.22
5 | CCOc1ccc(-n2c(SCC(=O)Nc3ccc(OC)c(OC)c3)nc3sc4c(c3c2=O)CCN(C(C)=O)C4)cc1 [Compound 7] | 49.6 | 69.9 | 83.3 | 69.0 | 72.5 | – | 19.5 ± 4.43
6 | CCOc1ccc(-n2c(SCC(=O)NC3CCN(C)CC3)nc3sc4c(c3c2=O)CCN(C(C)=O)C4)cc1 [Compound 30] | 99.1 | 31.0 | 118.5 | 119.7 | 93.0 | low hERG inhibition | 12.3 ± 1.25
